From ChEMBL document CHEMBL3870340, “Cytotoxic activity, apoptosis induction and structure-activity relationship of 8-OR-2-aryl-3,4-dihydroisoquinolin-2-ium salts as promising anticancer agents” (Bioorg Med Chem Lett, 2017)
pIC50: −log10 of the molar value. Calls of active or inactive are those of the source. The calls are words filed in the database; no cut-off is given here.

Experiments:
[1] = Cytotoxicity against human NB4 cells assessed as decrease in cell viability after 48 hrs by MTT assay; type: functional, cell-based; conditions: NB-4, 48 h
[2] = Cytotoxicity against human MKN45 cells assessed as decrease in cell viability after 48 hrs by MTT assay; type: functional, cell-based; conditions: MKN-45, 48 h
[3] = Antiproliferative activity against human MKN45 cells at 20 uM after 48 hrs by MTT assay relative to control; type: functional; conditions: MKN-45, 48 h, read-out: GI
[4] = Antiproliferative activity against human NB4 cells at 5 uM after 48 hrs by MTT assay relative to control; type: functional; conditions: NB-4, 48 h, read-out: GI
[5] = Cytotoxicity against primary goat fetal fibroblast assessed as decrease in cell viability after 48 hrs by MTT assay; type: toxicity; conditions: goat (Capra hircus), primary goat fetal fibroblasts
[6] = Cytotoxicity against primary porcine fetal kidney cells assessed as decrease in cell viability after 48 hrs by MTT assay; type: toxicity, cell-based; conditions: pig (Sus scrofa)
MKN-45 [7] = experiment: Induction of morphological changes in human MKN45 cells assessed as cell shrinkage at 0.41 uM after 48 hrs by acridine orange/ethidium bromide staining based fluorescence microscopy; type: functional
MKN-45 [8] = experiment: Induction of morphological changes in human MKN45 cells assessed as pyknosis in early apoptotic events at 0.41 uM after 48 hrs by acridine orange/ethidium bromide staining based fluorescence microscopy; type: functional, cell-based
MKN-45 [9] = experiment: Induction of morphological changes in human MKN45 cells assessed as change in cytomembrane permeability at 0.41 uM after 48 hrs by acridine orange/ethidium bromide staining based fluorescence microscopy; type: functional, cell-based
MKN-45 [10] = experiment: Induction of morphological changes in human MKN45 cells assessed as condensation of cell nuclei and chromatins at 0.41 uM after 48 hrs by acridine orange/ethidium bromide staining based fluorescence microscopy; type: functional
MKN-45 [11] = experiment: Induction of morphological changes in human MKN45 cells assessed as apoptotic cells at 2.03 uM after 48 hrs by acridine orange/ethidium bromide staining based fluorescence microscopy; type: functional, cell-based
MKN-45 [12] = experiment: Induction of morphological changes in human MKN45 cells assessed as late apoptotic cells at 10.1 uM after 48 hrs by acridine orange/ethidium bromide staining based fluorescence microscopy; type: functional, cell-based
MKN-45 [13] = experiment: Induction of apoptosis in human MKN45 cells after 48 hrs by acridine orange/ethidium bromide staining based fluorescence microscopy; type: functional, cell-based
MKN-45 [14] = experiment: Induction of apoptosis in human MKN45 cells assessed as viable cells at 2.03 uM after 48 hrs by annexin V/PI double staining based flow cytometry (reference value: 99.8%); type: functional; conditions: MKN-45, 48 h, read-out: Activity
MKN-45 [15] = experiment: Induction of apoptosis in human MKN45 cells assessed as early apoptotic cells at 2.03 uM after 48 hrs by annexin V/PI double staining based flow cytometry (reference value: 0.1%); type: functional
MKN-45 [16] = experiment: Induction of apoptosis in human MKN45 cells assessed as late apoptotic cells at 2.03 uM after 48 hrs by annexin V/PI double staining based flow cytometry (reference value: 0%); type: functional
MKN-45 [17] = experiment: Induction of apoptosis in human MKN45 cells assessed as necrotic cells at 2.03 uM after 48 hrs by annexin V/PI double staining based flow cytometry (reference value: 0.1%); type: functional
MKN-45 [18] = experiment: Induction of apoptosis in human MKN45 cells assessed as viable cells at 10.1 uM after 48 hrs by annexin V/PI double staining based flow cytometry (reference value: 99.8%); type: functional; conditions: MKN-45, 48 h, read-out: Activity
MKN-45 [19] = experiment: Induction of apoptosis in human MKN45 cells assessed as early apoptotic cells at 10.1 uM after 48 hrs by annexin V/PI double staining based flow cytometry (reference value: 0.1%); type: functional
MKN-45 [20] = experiment: Induction of apoptosis in human MKN45 cells assessed as late apoptotic cells at 10.1 uM after 48 hrs by annexin V/PI double staining based flow cytometry (reference value: 0%); type: functional
MKN-45 [21] = experiment: Induction of apoptosis in human MKN45 cells assessed as necrotic cells at 10.1 uM after 48 hrs by annexin V/PI double staining based flow cytometry (reference value: 0.1%); type: functional
NB-4 [22] = experiment: Induction of apoptosis in human NB4 cells assessed as viable cells at 2.30 uM after 48 hrs by annexin V/PI double staining based flow cytometry (reference value: 96.4%); type: functional; conditions: NB-4, 48 h, read-out: Activity
NB-4 [23] = experiment: Induction of apoptosis in human NB4 cells assessed as early apoptotic cells at 2.30 uM after 48 hrs by annexin V/PI double staining based flow cytometry (reference value: 2.3%); type: functional
NB-4 [24] = experiment: Induction of apoptosis in human NB4 cells assessed as late apoptotic cells at 2.30 uM after 48 hrs by annexin V/PI double staining based flow cytometry (reference value: 0.7%); type: functional
NB-4 [25] = experiment: Induction of apoptosis in human NB4 cells assessed as necrotic cells at 2.30 uM after 48 hrs by annexin V/PI double staining based flow cytometry (reference value: 0.6%); type: functional
NB-4 [26] = experiment: Induction of apoptosis in human NB4 cells assessed as viable cells at 11.5 uM after 48 hrs by annexin V/PI double staining based flow cytometry (reference value: 96.4%); type: functional; conditions: NB-4, 48 h, read-out: Activity
NB-4 [27] = experiment: Induction of apoptosis in human NB4 cells assessed as early apoptotic cells at 11.5 uM after 48 hrs by annexin V/PI double staining based flow cytometry (reference value: 2.3%); type: functional
NB-4 [28] = experiment: Induction of apoptosis in human NB4 cells assessed as late apoptotic cells at 11.5 uM after 48 hrs by annexin V/PI double staining based flow cytometry (reference value: 0.7%); type: functional
NB-4 [29] = experiment: Induction of apoptosis in human NB4 cells assessed as necrotic cells at 11.5 uM after 48 hrs by annexin V/PI double staining based flow cytometry (reference value: 0.6%); type: functional
NB-4 [30] = experiment: Induction of apoptosis in human NB4 cells after 48 hrs by annexin V/PI double staining based flow cytometry; type: functional, cell-based
MKN-45 [31] = experiment: Induction of apoptosis in human MKN45 cells after 48 hrs by annexin V/PI double staining based flow cytometry; type: functional, cell-based
NB-4 [32] = experiment: Induction of morphological changes in human NB4 cells assessed as apoptotic features at 0.46 to 11.5 uM after 48 hrs by acridine orange/ethidium bromide staining based fluorescence microscopy; type: functional, cell-based

COc1cccc2c1C=[N+](c1ccccc1I)CC2.[Br-]
pIC50 [1]: 5.64 | pIC50 [2]: 5.69 | inhibition of growth at 20 µM [3]: 90.9% | inhibition of growth at 5 µM [4]: 49.7% | IC50 at 48 h [5]: 3510 nM | IC50 at 48 h [6]: 2410 nM | Activity (MKN-45 [7]): Active | Activity (MKN-45 [8]): Active | Activity (MKN-45 [9]): Active | Activity (MKN-45 [10]): Active | Activity (MKN-45 [11]): Active | Activity (MKN-45 [12]): Active | Activity (MKN-45 [13]): Dose-dependent effect | viability at 2.03 µM (MKN-45 [14]): 82.2% | Activity (MKN-45 [15]): 12.8% | Activity (MKN-45 [16]): 4.6% | Activity (MKN-45 [17]): 0.4% | viability at 10.1 µM (MKN-45 [18]): 46% | Activity (MKN-45 [19]): 20.1% | Activity (MKN-45 [20]): 32% | Activity (MKN-45 [21]): 1.9% | viability at 2.3 µM (NB-4 [22]): 90.1% | Activity (NB-4 [23]): 7.7% | Activity (NB-4 [24]): 2.2% | Activity (NB-4 [25]): 0% | viability at 11.5 µM (NB-4 [26]): 77.9% | Activity (NB-4 [27]): 14.7% | Activity (NB-4 [28]): 7.1% | Activity (NB-4 [29]): 0.3% | Activity (NB-4 [30]): Dose-dependent effect | Activity (MKN-45 [31]): Dose-dependent effect | Activity (NB-4 [32]): Active
